Laboratory results from US7157017B2, “Fungicidal compositions and methods using cyanodithiocarbimates” (Buckman Laboratories International, Inc., priority 2003, dated 2007).

The compounds below were run on Aspergillus niger (assay: Inhibition of growth of Aspergillus niger in liquid MSY medium (96-well microplate, OD 686 nm)). Details: MSY broth, four days at 28° C. in the dark, complete inhibition = OD≦0.05, test levels given as ppm.
Assay type: cell-based
Protocol: The antifungal activities of compounds of formula (I) were measured by determining the inhibition of growth of Aspergillus niger in a standard liquid medium. The liquid growth medium is described as a solution of mineral salts+yeast extract (MSY). The MSY broth was prepared as described in ASTM G 21–70^1, and amended with glucose (10 g liter^−1) and yeast extract (1 g liter^−1). An aliquot (250 μL) of sterile medium was dispensed into each test well of a standard 96-well microplate (Corning No. 430247). Stock solutions of test compounds were prepared by dissolving the materials in 9:1 (v/v) solution of acetone:methanol. Appropriate volumes of stock solutions were added to the test wells in order to achieve the desired ppm levels. Each test well (plus controls) was then inoculated with 5 μL of a standardized suspension of Aspergillus niger. The cell suspension was prepared by suspending viable cells from a slant of potato dextrose agar into sterile, deionized water. The suspension was then adjusted to provide OD686=0.28. This density contains approximately 2.5×10^7 CFU mL^−1 (CFU=Colony Forming Units). The microplates were incubated in the dark for four days at 28° C. The optical density for each well at 686 nm was then recorded automatically using a SpectraMax 340 microplate reader (Molecular Devices Corp., Sunnyvale, Calif.). All wells were visually inspected in order to corroborate data from the instrument. […] The results are shown in Table 2. ^1“Standard Practice for Determining Resistance of Synthetic Polymeric Materials to Fungi”,ASTM Standards on Materials and Environmental Microbiology, 1st. Ed., 1987.

SMILES	Antifungal MIC
CCCCCCSC(=NC#N)SCCl [Cl, —(CH2)5CH3, hexyl chloromethyl cyanodithiocarbimate]	0.2
CCCSC(=NC#N)SCCl [Cl, —(CH2)2CH3, propyl chloromethyl cyanodithioicarbimate]	0.5
CC(C)SC(=NC#N)SCCl [Cl, —CH2(CH3)2, isopropyl chloromethyl cyanodithiocarbimate]	0.5

Other lines, results leading:

Antifungal MIC	SMILES
1.0	N#CN=C(SCCl)SCc1ccccc1 [Cl, —CH2C6H5, benzyl chloromethyl cyanodithiocarbimate]
1.0	C=CCSC(=NC#N)SCCl [Cl, —CH2CHC═CH2, allyl chloromethyl cyanodithiocarbimate]

The compounds below were run on fungal growth (mold) on wet blue hide (assay: Performance testing in a tannery: wet blue test pieces in mold-infested tropical chamber). Details: methyl carbitol-based formulation containing 30% w/w, 0.1% by weight in float (300 ppm active ingredient), chrome tanning of cowhides; 47 wet blue pieces, four weeks in tropical chamber.
Protocol: A methyl carbitol-based formulation containing 30% w/w of hexyl chloromethyl cyanodithiocarbimate was tested in a commercial tannery. Eighty-two cowhides were subjected to a standard production run using chrome tanning. The test formulation was added to the float (tanning liquid) at a concentration of 0.1% by weight providing a concentration of 300 ppm of active ingredient hexyl chloromethyl cyanodithiocarbimate. At the completion of the tanning process, five tanned hides (“wet blues”) were chosen randomly. Numerous test pieces (12×14 cm) were cut from the butt, belly, and neck regions of each of the five hides. A total of 47 test pieces of wet blue obtained were coded relative to hide source and position, and each piece was suspended in a tropical chamber. The tropical chamber was a mold-infested humidity chamber designed to severely challenge the test fungicide applied during the tanning process. Each test piece was visually examined on a weekly basis for four weeks for the presence or absence and extent of possible mold growth. […] This is the type of performance desired of a fungicide by the hide tanning industry.

SMILES	presence or absence and extent of mold growth on test pieces
CCCCCCSC(=NC#N)SCCl [Cl, —(CH2)5CH3, hexyl chloromethyl cyanodithiocarbimate]	free of fungal growth
